What was measured:
[1] = tested on: α-tubulin (lysine K40) acetylation in ST14A cells; assay: α-Tubulin acetylation in differentiated ST14A cells; type: cell-based, rat; details: mutant HD and wild type ST14A cells, 6 hours
Protocol: Compound bioactivity was tested in the rat embryonic striatal cell lines ST14A, which stably express either a mutant expanded repeat (128Q) or wild type (26Q) 546 amino acid huntingtin (HTT) fragment (a generous gift of E. Cattaneo) (Ehrlich et al., 2001) ST14A cells were propagated at 33° C. in the presence of serum. To induce neuronal differentiation, cells were serum deprived and cultured at 37° C. in the presence of N2 supplement. […]
This increased α-tubulin acetylation in compound-treated cells was consistent with the activity of MIND4 as a SIRT2 inhibitor.

[2] = tested on: dopaminergic neurons; assay: MPTP mouse model of Parkinson's disease; type: in vivo
Protocol: Male C57BL/6 mice (˜25 g) from Charles River Laboratories, Wilmington, Mass. were housed in temperature- and humidity-controlled rooms with a 12 hr dark: light cycle and had free access to food and water. Subacute MPTP paradigm (20 mg/kg i.p. injection once daily for 4 days) was employed to test dose response of MIND4 at 30 mg/kg, 60 mg/kg, or 90 mg/kg (i.p. 10 min before and 50 min after each MPTP injection). The effective dose of 60 mg/kg was used in the subsequent experiments (i.p. 10 min before and 50 min after each MPTP injection). Control animals received saline (control for MPTP) and 10% propylene glycol and 90% dextrose as vehicle for MIND4 by i.p. Mice were sacrificed 7 days after the last MPTP administration and striatal DA and metabolite HVA were determined by high performance liquid chromatography (HPLC) coupled with electrochemical detection (ECD) Immunostaining for tyrosine hydroxylase (TH), a marker for dopaminergic neurons was performed using mouse anti-TH antibody (Sigma, ST. Louis, Mo.). Total numbers of TH positive neurons in the substantia nigra (SN) were counted under blinded conditions using the Bioquant Image Analysis System (R&M Biometrics, Nashville, Tenn.).
The protective effects of CPD4 have been confirmed in both acute and subchronic PTP paradigms by comprehensive behavioral, neurochemical, and neuropathological evaluations (FIG. 18). CPD4 was administrated i.p. at 20 mg/kg 10 min before and 50 min after MPTP 20 mg/kg i.p. once daily for 4 days (subchronic regimen) (FIG. 18A). High performance liquid chromatography (HPLC) coupled with electrochemical detection was used to show attenuated dopamine (DA) loss induced by MPTP in the striatum (FIG. 18B). Dopaminergic cell counts in the substantia nigra (SN) were also measured in treated mice and compared to the control (MPTP group) (FIG. 18C). Tyrosine hydroxylase (TH) immunostained dopaminergic neurons were also imaged in the SN (FIG. 18D).

[3] = tested on: EGFP-NRF2; assay: Live-cell imaging of HEK293 cells expressing EGFP-NRF2 and KEAP1-mCherry; type: cell-based, human; details: 1 μM for 1 hr
Protocol: To examine the effect of MIND4-17 on the stabilization and sub-cellular localization of NRF2 in live cells, HEK293 cells (200,000 per dish) grown in α-MEM supplemented with 10% heat-inactivated FBS on 6-cm glass dishes, were co-transfected with constructs encoding EGFP-NRF2 and KEAP1-mCherry using Lipofectamine 2000 (Invitrogen) as described [Baird, 2013]. Cells were imaged 24 hr post-transfection before and after 1 hr-exposure to 1 μM MIND4-17. All images were acquired by confocal microscopy using a laser-scanning confocal microscope (LSM780; Carl Zeiss). The microscope was equipped with a thermostated chamber suitable to maintain the live cells and optics at constant 37° C. Imaging was performed using a 63× oil immersion NA 1.4 Plan-Apochromat objective from Zeiss.

[4] = tested on: primary microglia; assay: IL-6 release from primary microglia of wild type and YAC128 mice (ELISA); type: cell-based, mouse; details: CSE and INF-γ stimulated wild type and YAC128 microglia
Protocol: (§1) Whole brains were obtained from post-natal 1 to 3 day old wild type and YAC128 mouse pups on the FVB/N strain background and placed in Hanks Balanced Salt Solution (HBSS; Invitrogen) on ice. Meninges were removed and the remaining brain tissue was placed into growth medium (DMEM [Invitrogen], 10% FBS [PAA], 1% L-glutamine [Invitrogen], 1% penicillin/streptomycin [Invitrogen]), and homogenized using a 5 ml pipette. Cells of each brain were pelleted, re-suspended in growth medium and transferred into a T150 flask, cultured at 37° C. with 5% CO2. Growth medium was replaced after 24 hr and then every 7 days. After 18 to 21 days in culture, loosely attached microglia were harvested and seeded at 1.4×10^5 cells/ml with pre-incubated conditioned media into 96-well PRIMARIA™ tissue culture plates (BD Falcon). Adherent astrocytes were plated at 1.4×10^5 cells/ml in 10% FBS media for 24 hr in 96-well PRIMARIA™ tissue culture plates. After the initial isolation microglia and astrocytes were seeded at a density of 1.4×10^5 cells/ml into 96-well PRIMARIA™ tissue culture plates. […] Cells were lysed and total protein levels were determined using the microBCA kit (Thermo Scientific). Supernatants were analyzed using mouse IL-6 ELISA (e-Biocience) and IL-6 levels were normalized to total protein levels.

[5] = tested on: primary astrocytes; assay: IL-6 release from primary astrocytes of wild type and YAC128 mice (ELISA); type: cell-based, mouse; details: CSE-stimulated wild type and YAC128 astrocytes
Protocol: as §1

## O=[N+]([O-])c1ccc(Sc2nnc(COc3ccccc3)n2-c2ccccc2)c2ncccc12 [MIND4, 5-nitro-8-{[5-(phenoxymethyl)-4-phenyl-4H-1,2,4-triazol-3-yl]thio}quinoline]
[1]
  Acetylation of α-tubulin (lysine K40): dose dependent increase in acetylation of α-tubulin
[2]; 60 mg/kg i.p.
  MPTP induced DA loss in the striatum: mild but significant protection
[2]; 60 mg/kg vs MPTP group
  Residual DA and DA turnover rate (HVA/DA): increased level of residual DA and decreased DA turnover rate
[2]; vs MPTP alone group
  Dopaminergic neurons in the SN (stereological analysis): more remaining dopaminergic neurons

## O=[N+]([O-])c1ccc(Sc2nnc(COc3ccccc3)n2-c2ccccc2)nc1 [MIND4-17]
[3]
  Stabilization and sub-cellular localization of NRF2: stabilization and nuclear translocation of EGFP-NRF2
[4]
  IL-6 secretion: reduced the amount of IL-6 secreted
[5]
  IL-6 release: dose-response reduction of IL-6 release

Reference: US9737525B2, “Small molecule activators of NRF2 pathway” (The General Hospital Corporation, priority 2013, dated 2017)
